Among the data in patent US20230340012A1, “NATURAL AND SYNTHETIC COMPOUNDS FOR TREATING CANCER AND OTHER DISEASES” (PACIFIC ARROW LIMITED, priority 2009, published 2023) are Cytotoxicity activity values, retold here.

Structures are written as SMILES.

In the first data set the test system is cancer cells. Put plainly: MTT cytotoxic assay of esterification products (Cytotoxicity activity). Type of data set: cell-based, human. The following applies: E4A esterified with Acetyl chloride (Acy = Acetyl), compounds isolated with HPLC. In outline:
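Cytotoxicity was read by MTT (Carmichael method, modified), with cells seeded 24 h ahead of treatment. Sixteen human cancer lines spanning bone, lung, bladder, ovary, colon, pancreas, prostate, skin, mouth, kidney, breast, liver, brain, leukemia and cervix were used. Test samples were acyl chloride esterification products of triterpenes, as mixtures or HPLC-purified compounds.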
In general terms: Tetrazolium dyes change colour on reduction, which living cells bring about.
Regarding `CC(=O)OCC1(C)C(O)CCC2(C)C1CCC1(C)C2CC=C2C3CC(C)(C)C(O)C(OC(C)=O)C3(COC(C)=O)C(O)CC21C` (stereo not drawn) [Compound H5], the Cytotoxicity activity result is “moderate”.
The same measure, in the same setting: to `CC(=O)OCC1(C)C(OC(C)=O)CCC2(C)C1CCC1(C)C2CC=C2C3CC(C)(C)C(O)C(OC(C)=O)C3(COC(C)=O)C(O)CC21C` (stereo not drawn) [Compound H9] belongs “weak”; to `CC(=O)OCC1(C)C(OC(C)=O)CCC2(C)C1CCC1(C)C2CC=C2C3CC(C)(C)C(OC(C)=O)C(O)C3(COC(C)=O)C(O)CC21C` (stereo not drawn) [Compound H11], “weak”.

The data set is the same for the next values; noted with them: E4A esterified with Crotonoyl chloride (Cro = Crotonoyl), compounds isolated with HPLC.
`CC=CC(=O)OC1C(OC(=O)C=CC)C2(CO)C(O)CC3(C)C(=CCC4C5(C)CCC(OC(=O)C=CC)C(C)(CO)C5CCC43C)C2CC1(C)C` (stereo not drawn) [Compound I23]: the Cytotoxicity activity entry was “moderate”.
Same read-out and setting: for `CC=CC(=O)OCC1(C)C(O)CCC2(C)C1CCC1(C)C2CC=C2C3CC(C)(C)C(OC(=O)C=CC)C(OC(=O)C=CC)C3(CO)C(O)CC21C` (stereo not drawn) [Compound I21] the value was “moderate”.

The same data set, now with this note: MTT cytotoxic assay, isolated esterification products of E4A.
As for `CC=C(C)C(=O)OCC1(C)C(OC(=O)C(C)=CC)CCC2(C)C1CCC1(C)C2CC=C2C3CC(C)(C)C(OC(=O)C(C)=CC)C(O)C3(COC(=O)C(C)=CC)C(OC(=O)C(C)=CC)CC21C` (stereo not drawn) [Compound A17], the Cytotoxicity activity result is reported as “weak”.
On the same count and under the same terms, for `CCC(CC)C(=O)OCC1(C)C(OC(=O)C(CC)CC)CCC2(C)C1CCC1(C)C2CC=C2C3CC(C)(C)C(O)C(OC(=O)C(CC)CC)C3(COC(=O)C(CC)CC)C(O)CC21C` (stereo not drawn) [Compound E9] the value was “weak”; for `C=CCCC(=O)OCC1(C)C(O)CCC2(C)C1CCC1(C)C2CC=C2C3CC(C)(C)C(O)C(OC(=O)CCC=C)C3(COC(=O)CCC=C)C(O)CC21C` (stereo not drawn) [Compound C5], “moderate”; for `CC(C)=CC(=O)OCC1(C)C(OC(=O)C=C(C)C)CCC2(C)C1CCC1(C)C2CC=C2C3CC(C)(C)C(OC(=O)C=C(C)C)C(OC(=O)C=C(C)C)C3(COC(=O)C=C(C)C)C(O)CC21C` (stereo not drawn) [Compound B15], “weak”.
Same read-out and setting: for `CC=C(C)C(=O)OCC1(C)C(O)CCC2(C)C1CCC1(C)C2CC=C2C3CC(C)(C)C(O)C(O)C3(COC(=O)C(C)=CC)C(OC(=O)C(C)=CC)CC21C` (stereo not drawn) [Compound A7] the value was “moderate”.
Same read-out and setting: for `CC(C)=CC(=O)OCC1(C)C(OC(=O)C=C(C)C)CCC2(C)C1CCC1(C)C2CC=C2C3CC(C)(C)C(O)C(OC(=O)C=C(C)C)C3(COC(=O)C=C(C)C)C(OC(=O)C=C(C)C)CC21C` (stereo not drawn) [Compound B18] the value was “weak”; for `CCC(CC)C(=O)OCC1(C)C(O)CCC2(C)C1CCC1(C)C2CC=C2C3CC(C)(C)C(O)C(O)C3(COC(=O)C(CC)CC)C(O)CC21C` (stereo not drawn) [Compound E3], “strong”.

The same data set, now with this note: esterification products isolated with HPLC; graded strong / moderate / weak.
Turning to `C=CCCC(=O)OC1C(O)C2(COC(=O)C(C)=CC)C(O)CC3(C)C(=CCC4C5(C)CCC(O)C(C)(COC(=O)C(C)=CC)C5CCC43C)C2CC1(C)C` (stereo not drawn) [Tig—R—Pen—2], the Cytotoxicity activity result was “moderate”.
The same measure, in the same setting: to `CC=C(C)C(=O)OCC1(C)C(O)CCC2(C)C1CCC1(C)C2CC=C2C3CC(C)(C)C(OC(=O)C(C)=CC)C(OC(=O)C(C)=CC)C3(COC(=O)C(C)=CC)C(O)CC21C` (stereo not drawn) [Tig—R—Ang—1] belongs “weak”; to `CC=C(C)C(=O)OCC1(C)C(OC(=O)C(CC)CC)CCC2(C)C1CCC1(C)C2CC=C2C3CC(C)(C)C(OC(=O)C(CC)CC)C(O)C3(COC(=O)C(C)=CC)C(O)CC21C` (stereo not drawn) [Tig—R—Eth—5], “weak”; to `CC=C(C)C(=O)OCC1(C)C(O)CCC2(C)C1CCC1(C)C2CC=C2C3CC(C)(C)C(OC(C)=O)C(O)C3(CO)C(O)CC21C` (stereo not drawn) [Tig—Acy—5], “moderate”.
The same measure, in the same setting: for `CC=C(C)C(=O)OCC1(C)C(O)CCC2(C)C1CCC1(C)C2CC=C2C3CC(C)(C)C(OC(=O)CCCCC)C(O)C3(COC(=O)CCCCC)C(O)CC21C` (stereo not drawn) [Tig—Hex—2] the value was “moderate”; for `CC=C(C)C(=O)OCC1(C)C(OC(=O)C=C(C)C)CCC2(C)C1CCC1(C)C2CC=C2C3CC(C)(C)C(O)C(O)C3(COC(=O)C(C)=CC)C(O)CC21C` (stereo not drawn) [Tig—R—Sen—4], “moderate”.
